Measurements taken from patent US20250339569A1, “CARBONIC ANHYDRASE IX LIGANDS” (priority 2021, published 2025).
Blank lines part the entries; values can stand above or below the molecule they belong to. Starred links: 1 amine or outer side, 2 acyl side, 3 side chain; linkers in the order of their positions; H or OH if unused. Positions of bridges follow the written chain, without caps; N, C: chain ends. Non-standard residues stand in square brackets, D forms with d. Residues, ends and D or L forms follow the SMILES beside them. ξ: configuration not given here. *: point of attachment. DOTA = O=C(O)CN1CCN(CC(=O)O)CCN(CC(=O)*)CCN(CC(=O)O)CC1; Phe(3-CF3) = N[C@@H](Cc1cccc(C(F)(F)F)c1)C(=O)O; Phe(4-CF3) = N[C@@H](Cc1ccc(C(F)(F)F)cc1)C(=O)O; ξTrp(7-Me) = Cc1cccc2c(CC(N)C(=O)O)c[nH]c12; ξTrp(1-Me) = Cn1cc(CC(N)C(=O)O)c2ccccc21; mXylylene = c1cc(C[*:1])cc(C[*:2])c1; X2 = O=C(CN1CCC(N[*:1])CC1)[*:2]; Cha = N[C@@H](CC1CCCCC1)C(=O)O

Legend:
[1] = molecular target: T1, CAIX-expressing human HT-29 colorectal cancer cells (Homo sapiens, UniProt Q16790); experiment: FACS binding assay (IC50 determination, competition with tracer 3BP-2776 or 3BP-4149); details: FACS binding assay, HT-29 cells, competition with tracer 3BP-2776 (10 nM, biotin-labeled), 4° C., 1 hour; read-out: pIC50 category (activity) (converted)
T1 construct: CAIX-expressing human HT-29 colorectal cancer cells; host or cells: HT-29 human colorectal cancer cells
Procedure, shortened: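 HT-29 cells in FACS buffer (PBS, 1% FCS) at 500.000 cells/ml were exposed to compounds competing with a labelled tracer, with biotinylated compounds detected by 1 μg/mL APC-streptavidin for 30 min on ice. APC/Cy5 median fluorescence was read by flow cytometry and IC50 derived by 4PL fit.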

[2] = molecular target: T2, human carbonic anhydrase IX (hCAIX-Fc) (Homo sapiens, UniProt Q16790); experiment: Surface plasmon resonance assay with hCAIX-Fc; assay type: binding; details: 25° C.; for t1/2 category (activity): SPR dissociation half-life, hCAIX-Fc; for Kd: SPR, hCAIX-Fc captured, read-out: pKD category (activity) (converted)
T2 construct: purchased SinoBliological (Sino Biological) 10107-H02H

SMILES: CC(C)C[C@@H]1NC(=O)[C@H](Cc2cccc(C(F)(F)F)c2)NC(=O)[C@H](CC(=O)O)NC(=O)[C@H]2CCCN2C(=O)[C@H](CCC(=O)O)NC(=O)[C@@H](NC(=O)[C@H](Cc2ccc(O)cc2)NC(=O)[C@@H](NC(=O)CN2CCC(NC(=O)CN3CCN(CC(=O)O)CCN(CC(=O)O)CCN(CC(=O)O)CC3)CC2)C(C)C)CSCc2cccc(c2)CSC[C@@H](C(N)=O)NC(=O)[C@H](CO)NC(=O)[C@H](Cc2c[nH]c3ccccc23)NC(=O)[C@H]([C@@H](C)O)NC1=O [3BP-4135] ({DOTA}-[X2]VYCE[dP]D[Phe(3-CF3)]LTWSC-NH2; linker 4-13 via mXylylene)
IC50 [1]: < 10 nM
t1/2 category (activity) [2]: B (t1/2 between 5.1 and 15.0 minutes)
Kd [2]: < 10 nM

SMILES: CC(C)C[C@@H]1NC(=O)[C@H](Cc2ccc(C(F)(F)F)cc2)NC(=O)[C@H](CC(=O)O)NC(=O)[C@H]2CCCN2C(=O)[C@H](CCC(=O)O)NC(=O)[C@@H](NC(=O)[C@H](Cc2ccc(O)cc2)NC(=O)[C@@H](NC(=O)CN2CCC(NC(=O)CN3CCN(CC(=O)O)CCN(CC(=O)O)CCN(CC(=O)O)CC3)CC2)C(C)C)CSCc2cccc(c2)CSC[C@@H](C(N)=O)NC(=O)[C@H](CO)NC(=O)[C@H](Cc2c[nH]c3ccccc23)NC(=O)[C@H]([C@@H](C)O)NC1=O [3BP-4139] ({DOTA}-[X2]VYCE[dP]D[Phe(4-CF3)]LTWSC-NH2; linker 4-13 via mXylylene)
IC50 [1]: < 10 nM
t1/2 category (activity) [2]: C (t1/2 between 2.1 and 5.0 minutes)
Kd [2]: < 10 nM

Results, then the molecule that gave them:

IC50 [1]: < 10 nM
t1/2 category (activity) [2]: C (t1/2 between 2.1 and 5.0 minutes)
Kd [2]: < 10 nM
SMILES: CC(C)[C@H](NC(=O)CN1CCC(NC(=O)CN2CCN(CC(=O)O)CCN(CC(=O)O)CCN(CC(=O)O)CC2)CC1)C(=O)N[C@@H](Cc1ccc(O)cc1)C(=O)N[C@H]1CSCc2cccc(c2)CSC[C@@H](C(N)=O)NC(=O)[C@H](CO)NC(=O)[C@H](Cc2c[nH]c3ccccc23)NC(=O)[C@H]([C@@H](C)O)NC(=O)[C@H](CC2CCCCC2)NC(=O)[C@H](Cc2c[nH]c3ccccc23)NC(=O)[C@H](CC(=O)O)NC(=O)[C@H]2CCCN2C(=O)[C@H](CCC(=O)O)NC1=O [3BP-4143] ({DOTA}-[X2]VYCE[dP]DW[Cha]TWSC-NH2; linker 4-13 via mXylylene)

IC50 [1]: < 10 nM
t1/2 category (activity) [2]: B (t1/2 between 5.1 and 15.0 minutes)
Kd [2]: < 10 nM
SMILES: CC(C)C[C@@H]1NC(=O)C(Cc2cn(C)c3ccccc23)NC(=O)[C@H](CC(=O)O)NC(=O)[C@H]2CCCN2C(=O)[C@H](CCC(=O)O)NC(=O)[C@@H](NC(=O)[C@H](Cc2ccc(O)cc2)NC(=O)[C@@H](NC(=O)CN2CCC(NC(=O)CN3CCN(CC(=O)O)CCN(CC(=O)O)CCN(CC(=O)O)CC3)CC2)C(C)C)CSCc2cccc(c2)CSC[C@@H](C(N)=O)NC(=O)[C@H](CO)NC(=O)[C@H](Cc2c[nH]c3ccccc23)NC(=O)[C@H]([C@@H](C)O)NC1=O (stereo partly drawn) [3BP-4144] ({DOTA}-[X2]VYCE[dP]D[ξTrp(1-Me)]LTWSC-NH2; linker 4-13 via mXylylene)

IC50 [1]: < 10 nM
t1/2 category (activity) [2]: B (t1/2 between 5.1 and 15.0 minutes)
Kd [2]: < 10 nM
SMILES: Cc1cccc2c(CC3NC(=O)[C@H](CC(=O)O)NC(=O)[C@H]4CCCN4C(=O)[C@H](CCC(=O)O)NC(=O)[C@@H](NC(=O)[C@H](Cc4ccc(O)cc4)NC(=O)[C@@H](NC(=O)CN4CCC(NC(=O)CN5CCN(CC(=O)O)CCN(CC(=O)O)CCN(CC(=O)O)CC5)CC4)C(C)C)CSCc4cccc(c4)CSC[C@@H](C(N)=O)NC(=O)[C@H](CO)NC(=O)[C@H](Cc4c[nH]c5ccccc45)NC(=O)[C@H]([C@@H](C)O)NC(=O)[C@H](CC(C)C)NC3=O)c[nH]c12 (stereo partly drawn) [3BP-4158] ({DOTA}-[X2]VYCE[dP]D[ξTrp(7-Me)]LTWSC-NH2; linker 4-13 via mXylylene)
